Source: PubChem BioAssay AID1963961 (Molecular Pharmacology Branch, DTP, NCI, 2024)
pIC50: −log10 of the molar value.

Tested on: K98450-129-R-PDC multicell spheroids, viability
Assay: Anticancer human tumor K98450-129-R-PDC patient-derived colon adenocarcinoma cell line growth inhibition [PI3K]
Details: for pIC50: curve of first compound; for viability, T/C: stronger effect = lower value; active = viability on the fitted dose curve at most 10% of control; inactive = the rest
Description: Combinatorial screen of targeted agents with the PI3K inhibitors inavolisib, alpelisib, duvelisib, and copanlisib in multi-cell type tumor spheroids
A high-throughput screen of multi-cell type tumor spheroids was designed to identify active combinations of targeted small molecules and PI3K pathway inhibitors. Complex spheroids include a stromal component modeled by human endothelial cells (HUVEC) and fibroblasts modeled by human mesenchymal stem cells (MSCs). The concentration ranges selected for each drug and investigational agent were based upon clinically achievable concentrations if the clinical Cmax of the agent was known.
Compounds. The drugs and investigational agents: inavolisib (NSC800729), alpelisib (NSC765974), duvelisib (NSC772469), copanlisib (NSC816437), ipatasertib (NSC767898), afuresertib (NSC778305), talazoparib (NSC767125), sapanisertib (NSC764658), selumetinib (NSC741078), tovorafenib (DAY101, NSC766906), vemurafenib (NSC761431), ravoxertinib (NSC781343), sotorasib (NSC818433), MRTX1133 (NSC 836407), abemaciclib (NSC 768073), palbociclib (NSC758247), venetoclax (NSC 766270), SY5609 (NSC837396), enzalutamide (NSC755605), and darolutamide (NSC825331), were obtained from the National Cancer Institute (NCI) Developmental Therapeutics Program Chemical Repository. The FDA-approved anticancer drug set is available from the NCI Developmental Therapeutics Program. […] The stock solutions were prepared in dimethyl sulfoxide (DMSO, Sigma-Aldrich, St. Louis, MO, cat. D2650) at 800-fold the tested concentration and stored at -70 degrees C prior to their use. All drugs and investigational agents were tested over a range starting from a high concentration at or near the clinical Cmax and decreasing in half-log increments. If the clinical Cmax for an agent had not been determined, the highest concentration tested was 10 microM.
Cell Culture. All cells were maintained in an incubator at 37 degrees C and 5% CO2 with 95% humidity. The PDC lines were cultured according to standard operating procedures established by the NCI PDMR (https://pdmr.cancer.gov/sops/default.htm). All PDCs were thawed and cultured in Matrigel-coated flasks prepared with a working solution of 1X Ham's F-12 nutrient mix, without supplementation (Invitrogen, Waltham, MA, cat. 11765054), 100 U/mL penicillin-streptomycin (Invitrogen, cat. 15140122), and 2.5% Matrigel (Corning Inc., Corning, NY, cat. 354248) for the first three passages. The 354836-022-R-J1-PDC, 475296-252-R-J1-PDC, and 997726-040-R-J2-PDC lines were cultured in 6A media, which includes advanced DMEM/F-12 (Thermo Fisher Scientific, cat. 12634028), 10 mM HEPES (Thermo Fisher Scientific, cat. 15630080), 1X GlutaMAX supplement (Thermo Fisher Scientific, cat. 35050061), 0.1 mg/mL primocin (InvivoGen, San Diego, CA, cat. ant-pm-2), 10% defined fetal bovine serum, heat inactivated (HyClone Laboratories Inc., Logan, UT, cat. SH30070.03HI), 50% L-WRN conditioned media (ATCC, cat. CRL-3276), 1.25 mM N-Acetyl-L-cysteine (Sigma-Aldrich, cat. A9165), 10 mM nicotinamide (Sigma-Aldrich, cat. N0636), 1X B-27 supplement (Thermo Fisher Scientific, cat. 17504044), 1X N-2 supplement (Thermo Fisher Scientific, cat. 17502048), and 10 microM Y-27632 dihydrochloride (Tocris Bioscience, Bristol, United Kingdom, cat. 1254). The 624824-186-R-J2-PDC line was cultured in 6C/Colon 1B media, which includes all 6A media components plus 50 ng/mL human EGF recombinant protein (Thermo Fisher Scientific, cat. PHG0311). […]

[1] = second compound 0.0316 µM, first compound 0.0316 µM
[2] = second compound 0.0316 µM, first compound 0.1 µM
[3] = second compound 0.1 µM, first compound 0.0316 µM
[4] = second compound 0.1 µM, first compound 0.1 µM
[5] = second compound 0.316 µM, first compound 0.0316 µM
[6] = second compound 0.316 µM, first compound 0.1 µM
[7] = second compound 1 µM, first compound 0.0316 µM
[8] = second compound 1 µM, first compound 0.1 µM
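Note: spheroids exposed to agents for seven days before read-out.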

Cn1nccc1Nc1nccc(-c2ccn(C(CO)c3ccc(Cl)c(F)c3)c(=O)c2)n1 (centres undefined) + COc1c(OCCCN2CCOCC2)ccc2c3n(c(=NC(=O)c4cnc(N)nc4)nc12)CCN3
5.11: pIC50 (second compound 0.1 µM)
inactive: viability, T/C (second compound 0.00316 µM, first compound 0.0316 µM) 101% | viability, T/C (second compound 0.00316 µM, first compound 0.1 µM) 97.7% | viability, T/C (second compound 0.00316 µM, first compound 0.316 µM) 89.3% | viability, T/C (second compound 0.00316 µM, first compound 1 µM) 88.5% | viability, T/C (second compound 0.00316 µM, first compound 3.16 µM) 93.6% | viability, T/C (second compound 0.00316 µM, first compound 10 µM) 69.2% | viability, T/C (second compound 0.01 µM, first compound 0.0316 µM) 99.1% | viability, T/C (second compound 0.01 µM, first compound 0.1 µM) 82% | viability, T/C (second compound 0.01 µM, first compound 0.316 µM) 79.7% | viability, T/C (second compound 0.01 µM, first compound 1 µM) 79.9% | viability, T/C (second compound 0.01 µM, first compound 3.16 µM) 77.4% | viability, T/C (second compound 0.01 µM, first compound 10 µM) 95.5% | viability, T/C [1] 80.7% | viability, T/C [2] 88.6% | viability, T/C (second compound 0.0316 µM, first compound 0.316 µM) 74.8% | viability, T/C (second compound 0.0316 µM, first compound 1 µM) 94.6% | viability, T/C (second compound 0.0316 µM, first compound 3.16 µM) 77.3% | viability, T/C (second compound 0.0316 µM, first compound 10 µM) 63.1% | viability, T/C [3] 65.6% | viability, T/C [4] 74.8% | viability, T/C (second compound 0.1 µM, first compound 0.316 µM) 73.3% | viability, T/C (second compound 0.1 µM, first compound 1 µM) 75.3% | viability, T/C (second compound 0.1 µM, first compound 3.16 µM) 70.2% | viability, T/C (second compound 0.1 µM, first compound 10 µM) 44.5% | viability, T/C [5] 63.2% | viability, T/C [6] 53.7% | viability, T/C (second compound 0.316 µM, first compound 0.316 µM) 55.6% | viability, T/C (second compound 0.316 µM, first compound 1 µM) 61.9% | viability, T/C (second compound 0.316 µM, first compound 3.16 µM) 59.7% | viability, T/C (second compound 0.316 µM, first compound 10 µM) 40.8% | viability, T/C [7] 54.7% | viability, T/C [8] 61.5% | viability, T/C (second compound 1 µM, first compound 0.316 µM) 43.2% | viability, T/C (second compound 1 µM, first compound 1 µM) 43.9% | viability, T/C (second compound 1 µM, first compound 3.16 µM) 33.4% | viability, T/C (second compound 1 µM, first compound 10 µM) 20.9%
< 5.00: pIC50 (second compound 0.00316 µM) | pIC50 (second compound 0.01 µM) | pIC50 (second compound 0.0316 µM)
5.08: pIC50 (second compound 0.316 µM)
6.57: pIC50 (second compound 1 µM)

CC(C)n1nc(-c2ccc3oc(N)nc3c2)c2c(N)ncnc21 + CC(Nc1ncnc2nc[nH]c12)c1cc2cccc(Cl)c2c(=O)n1-c1ccccc1
inactive: viability, T/C (second compound 0.0316 µM, first compound 0.000316 µM) 106% | viability, T/C (second compound 0.0316 µM, first compound 0.001 µM) 91.5% | viability, T/C (second compound 0.0316 µM, first compound 0.00316 µM) 93.9% | viability, T/C (second compound 0.0316 µM, first compound 0.01 µM) 79% | viability, T/C [1] 84.6% | viability, T/C [2] 84.6% | viability, T/C (second compound 0.1 µM, first compound 0.000316 µM) 126% | viability, T/C (second compound 0.1 µM, first compound 0.001 µM) 96.9% | viability, T/C (second compound 0.1 µM, first compound 0.00316 µM) 106% | viability, T/C (second compound 0.1 µM, first compound 0.01 µM) 111% | viability, T/C [3] 81.1% | viability, T/C [4] 72.8% | viability, T/C (second compound 0.316 µM, first compound 0.000316 µM) 108% | viability, T/C (second compound 0.316 µM, first compound 0.001 µM) 134% | viability, T/C (second compound 0.316 µM, first compound 0.00316 µM) 81.3% | viability, T/C (second compound 0.316 µM, first compound 0.01 µM) 95.4% | viability, T/C [5] 92.7% | viability, T/C [6] 71.1% | viability, T/C (second compound 1 µM, first compound 0.000316 µM) 101% | viability, T/C (second compound 1 µM, first compound 0.001 µM) 111% | viability, T/C (second compound 1 µM, first compound 0.00316 µM) 84.3% | viability, T/C (second compound 1 µM, first compound 0.01 µM) 97.6% | viability, T/C [7] 92.1% | viability, T/C [8] 71.3% | viability, T/C (second compound 3.16 µM, first compound 0.000316 µM) 110% | viability, T/C (second compound 3.16 µM, first compound 0.001 µM) 97.4% | viability, T/C (second compound 3.16 µM, first compound 0.00316 µM) 103% | viability, T/C (second compound 3.16 µM, first compound 0.01 µM) 91.7% | viability, T/C (second compound 3.16 µM, first compound 0.0316 µM) 90.4% | viability, T/C (second compound 3.16 µM, first compound 0.1 µM) 67.3% | viability, T/C (second compound 10 µM, first compound 0.000316 µM) 92.6% | viability, T/C (second compound 10 µM, first compound 0.001 µM) 84.2% | viability, T/C (second compound 10 µM, first compound 0.00316 µM) 87.1% | viability, T/C (second compound 10 µM, first compound 0.01 µM) 88.5% | viability, T/C (second compound 10 µM, first compound 0.0316 µM) 87.6% | viability, T/C (second compound 10 µM, first compound 0.1 µM) 78.2%
< 7.00: pIC50 (second compound 0.0316 µM) | pIC50 (second compound 0.1 µM) | pIC50 (second compound 0.316 µM) | pIC50 (second compound 1 µM) | pIC50 (second compound 3.16 µM) | pIC50 (second compound 10 µM)
